The IC50 is the concentration at which inhibition is half-maximal.

In PubChem BioAssay AID1645865 (Buhrlage Lab, Dana-Farber Cancer Institute and Novartis …, 2021) one finds IC50 data, which are given here for 35 molecules.

The test has as its target Ubiquitin carboxyl-terminal hydrolase 30 (Homo sapiens) (UniProt Q70CQ3). As to the kind of experiment: ubiquitin-specific protease 30 DUB inhibitors, concentration-effect, biochemical, validation of primary actives (AID 1645865). The conditions noted are these: purified USP30, Ub-rhodamine cleavage, fluorescence, 2 h.

The source made the active and inactive calls.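 The calls were made as follows: active = maximal inhibition of the USP30 enzyme reaching 30% or more across the dose series; inactive = the rest.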

Sequence of Ubiquitin carboxyl-terminal hydrolase 30 (Homo sapiens) (Q70CQ3 whole entry, looked up): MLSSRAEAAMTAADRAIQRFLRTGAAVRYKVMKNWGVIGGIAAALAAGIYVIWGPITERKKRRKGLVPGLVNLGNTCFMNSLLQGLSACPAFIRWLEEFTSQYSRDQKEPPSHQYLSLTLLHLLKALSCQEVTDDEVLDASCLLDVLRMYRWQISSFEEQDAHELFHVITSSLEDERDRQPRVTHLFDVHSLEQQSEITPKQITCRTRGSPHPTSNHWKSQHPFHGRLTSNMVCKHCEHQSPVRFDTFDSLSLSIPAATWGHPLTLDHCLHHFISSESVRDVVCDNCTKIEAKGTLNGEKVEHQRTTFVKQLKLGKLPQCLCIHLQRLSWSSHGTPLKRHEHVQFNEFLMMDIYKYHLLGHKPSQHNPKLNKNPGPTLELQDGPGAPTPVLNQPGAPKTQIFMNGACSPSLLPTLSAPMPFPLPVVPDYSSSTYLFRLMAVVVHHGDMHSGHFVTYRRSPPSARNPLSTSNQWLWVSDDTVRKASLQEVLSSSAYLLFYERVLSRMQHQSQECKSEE

Take `O=C(COc1ccc(Cl)cc1)N1CCc2cc3ccccc3nc21`: the IC50 is 1.91 µM.

Turning to `CCN(c1ccc(NC(=O)CSc2nnc(-c3ccccc3)n2-c2ccc(OC)c(OC)c2)cc1)C(C)C`, the half-inhibitory concentration (IC50) is 2.07 µM.

Turning to `CCCC1Cc2c(sc3nc(SCC)nc(N)c23)CO1` (stereo not given), the IC50 is 13.8 µM.

With `O=C(COc1cc([N+](=O)[O-])cc2cccnc12)NCCC1=CCCCC1`, the IC50 was 28.3 µM.

With `CC(=O)Nc1ccc(S(=O)(=O)N2CCCC(C(=O)Nc3cccc4ccccc34)C2)cc1` (stereo not given), the half-inhibitory concentration (IC50) was 25.5 µM.

`COc1ccc(-c2cc3c(=O)n(CC(=O)Nc4ccccc4F)ccn3n2)cc1OC`: the IC50 is 11.8 µM.

Consider `Cn1ccnc1CN1C[C@H]2CCN(c3ncccn3)C[C@H]2C1`, for which the IC50 is > 50 µM (inactive).

Take `Cc1ccc(-n2c(=O)c3ccccc3n(Cc3c(F)cccc3Cl)c2=O)cc1`: the IC50 is 2.25 µM.

Take `COc1ccc(-c2cc(-c3nnc4n3CCCCC4)n(-c3ccccc3)n2)cc1`: the IC50 is 39.3 µM.

As to `O=C(COc1ccc2c(-c3ccccc3)cc(=O)oc2c1)Nc1cccnc1`, the IC50 is 1.3 µM.

With `O=C(CSc1ncnc2c1oc1ccccc12)Nc1ccc2c(c1)OCCO2`, the IC50 is 18.7 µM.

Turning to `COCCn1c(=S)[nH]c2cc(C(=O)NCCSCc3ccccc3)ccc2c1=O`, the IC50 is > 5 µM (inactive).

As for `COc1cccc(-n2cnc3cc(C(=O)NC4CC4)ccc3c2=O)c1`, the IC50 is > 50 µM (inactive).

With `NS(=O)(=O)c1ccc(NS(=O)(=O)c2ccc(NC(=O)Nc3ccc(Cl)cc3)cc2)cc1`, the IC50 is 29.4 µM.

As to `O=C(Cn1nc2c3c4c(sc3ncn2c1=O)CCCCC4)Nc1ccc(Cl)cc1F`, the IC50 was 1.49 µM.

As to `O=C1c2ccccc2NC2(C(=O)Nc3ccc(Br)cc32)N1c1ccccc1` (stereo not given), the IC50 was > 50 µM (inactive).

Turning to `COc1cccc(CNC(=O)c2ccc(CSc3nc4ccncc4n3Cc3ccccc3F)cc2)c1`, the IC50 is 29.2 µM.

For the molecule `O=c1c2cnc(N3CCCCC3)nc2ccn1CCc1ccccc1`, the IC50 was 2.44 µM.

With `COc1ccc(C(=O)Nc2cc3c4c(c2)C(C)C(=O)N4CCC3)cc1` (stereo not given), the IC50 was > 50 µM (inactive).

On to `Cc1ccc(NC(=O)Cc2nnc3c(-c4nc(C5CC5)no4)cccn23)cc1`, for which the IC50 was 3.15 µM.

As for `O=C(Nc1ccc2sccc2c1)c1ccc(F)cc1`, the IC50 is 35.4 µM.

In the case of `COc1ccc(-n2cc(C(=O)NCc3ccc4c(c3)OCO4)c3ccccc3c2=O)cc1`, the IC50 is 31.9 µM.

For `COc1ccccc1C(=O)NCC(c1ccc2c(c1)CCCN2C)N1CCCC1` (stereo not given), the IC50 is > 50 µM (inactive).

For `CCOc1ccc2c(c1)c(=O)c(C(=O)c1ccccc1)cn2CC(=O)Nc1ccccc1`, the IC50 is 4.27 µM.

On to `Cc1nc(C(=O)N[C@@H](C)C(=O)NCc2ccc3c(c2)OCO3)cc2c1[nH]c1ccccc12`, for which the IC50 was > 50 µM (inactive).

On to `O=C(Nc1oc2ccccc2c(=O)c1-c1ccc2c(c1)OCO2)C1CCCCC1`, for which the concentration for half-maximal inhibition (IC50) was 27.2 µM.

`CS(=O)(=O)NC1CCCN(C(=O)Nc2cccc3ccccc23)C1` (stereo not given): the IC50 was > 50 µM (inactive).

Turning to `Cc1ccc2nc(CNc3ccc(F)cc3C)cc(=O)n2c1`, the IC50 is > 50 µM (inactive).

As to `O=C(COc1ccc(F)cc1)Nc1cc(F)c2nc(N3CCOCC3)ccc2c1`, the IC50 was > 50 µM (inactive).

As to `COc1ccc(NC(=O)CC(=O)c2ccc([N+](=O)[O-])cc2)cc1S(=O)(=O)Nc1ccc(Cl)cc1`, the IC50 is 37.1 µM.

With `COc1ccccc1OCC(=O)Nc1ccc2c(c1)CCC(=O)N2Cc1ccccc1`, the IC50 was > 50 µM (inactive).

For the molecule `Cc1ccc2oc(=O)c(S(=O)(=O)N3CCCCC3)cc2c1`, the IC50 is 12.7 µM.

With `CC(=O)c1ccc(NC(=O)C2CCN(c3cncnc3N3CCCC3)CC2)cc1`, the IC50 is > 50 µM (inactive).

`O=C(C(c1ccccc1)c1ccccc1)N1CCC(c2nc3c(nnn3Cc3c(F)cccc3Cl)c(=O)[nH]2)CC1`: the IC50 was 11.5 µM.

For `O=C(CSc1cn(Cc2ccccc2)c2ccccc12)Nc1ccc2c(c1)OCCO2`, the IC50 was > 50 µM (inactive).
